Laboratory results taken from patent US12077503B2, “Substituted cyclic amides and their use as herbicides” (FMC CORPORATION, priority 2015, dated 2024).

Assays:
Type in all cases: in vivo
[1] = test system: ivy-leaved morning glory (Ipomoea hederacea); test: Test G Post-Emergence Protocol; conditions: Ipomoea, post-emergence, 312 h, read-out: Morningglory, Ivy-leaved damage rating; for pest or weed control at 15.625 g/ha: 15.625 g ai/ha, evaluated after 13 days (100=total damage to plant; 0=no damage to plant); for pest or weed control at 62.5 g/ha: 62.5 g ai/ha; for pest or weed control at 62.5 g/ha / pest or weed control at 250 g/ha: evaluated after 13 days, 100=total damage to plant, 0=no damage to plant; for pest or weed control at 250 g/ha: 250 g ai/ha
Procedure, shortened: (§1)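 Eight days post-sowing, plants received a spray of test compound (acetone/water 50:50, 0.5% Tween 20) at 15.625, 62.5 or 250 g/ha. Glasshouse regime thereafter: 24/16 °C, 14 h light, 65% humidity. Assessment after 13 days on a 0–100 damage scale.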

[2] = test system: giant foxtail (Setaria faberi); test: Test G Post-Emergence Protocol; conditions: Setaria faberi, post-emergence, 312 h, read-out: Foxtail, Giant damage rating; for pest or weed control at 15.625 g/ha: 15.625 g ai/ha, evaluated after 13 days (100=total damage to plant; 0=no damage to plant); for pest or weed control at 62.5 g/ha: 62.5 g ai/ha; for pest or weed control at 62.5 g/ha / pest or weed control at 250 g/ha: evaluated after 13 days, 100=total damage to plant, 0=no damage to plant; for pest or weed control at 250 g/ha: 250 g ai/ha
Procedure, shortened: as §1

[3] = test system: velvetleaf (Abutilon theophrasti); test: Test G Post-Emergence Protocol; conditions: Abutilon theophrasti, post-emergence, 312 h, read-out: Velvetleaf damage rating; for pest or weed control at 15.625 g/ha: 15.625 g ai/ha, evaluated after 13 days (100=total damage to plant; 0=no damage to plant); for pest or weed control at 62.5 g/ha: 62.5 g ai/ha; for pest or weed control at 62.5 g/ha / pest or weed control at 250 g/ha: evaluated after 13 days, 100=total damage to plant, 0=no damage to plant; for pest or weed control at 250 g/ha: 250 g ai/ha
Procedure, shortened: as §1

[4] = test system: barnyardgrass (Echinochloa crus-galli); test: Test G Post-Emergence Protocol; conditions: Echinochloa crus-galli, post-emergence, 312 h, read-out: Barnyardgrass damage rating; for pest or weed control at 15.625 g/ha: 15.625 g ai/ha, evaluated after 13 days (100=total damage to plant; 0=no damage to plant); for pest or weed control at 62.5 g/ha: 62.5 g ai/ha; for pest or weed control at 62.5 g/ha / pest or weed control at 250 g/ha: evaluated after 13 days, 100=total damage to plant, 0=no damage to plant; for pest or weed control at 250 g/ha: 250 g ai/ha
Procedure, shortened: as §1

[5] = test system: redroot pigweed (Amaranthus retroflexus); test: Test G Post-Emergence Protocol; conditions: Amaranthus retroflexus, post-emergence, 312 h, read-out: Pigweed, Redroot damage rating; for pest or weed control at 15.625 g/ha: 15.625 g ai/ha, evaluated after 13 days (100=total damage to plant; 0=no damage to plant); for pest or weed control at 62.5 g/ha: 62.5 g ai/ha; for pest or weed control at 62.5 g/ha / pest or weed control at 250 g/ha: evaluated after 13 days, 100=total damage to plant, 0=no damage to plant; for pest or weed control at 250 g/ha: 250 g ai/ha
Procedure, shortened: as §1

corn (Zea mays) [6] = test: Test G Post-Emergence Protocol; conditions: Zea mays, post-emergence, 312 h, read-out: Corn damage rating; for plant injury at 15.625 g/ha: 15.625 g ai/ha, evaluated after 13 days (100=total damage to plant; 0=no damage to plant); for plant injury at 62.5 g/ha: 62.5 g ai/ha; for plant injury at 62.5 g/ha / plant injury at 250 g/ha: evaluated after 13 days, 100=total damage to plant, 0=no damage to plant; for plant injury at 250 g/ha: 250 g ai/ha
Procedure, shortened: as §1

[7] = test system: ivy-leaved morning glory (Ipomoea hederacea); test: Test G Pre-Emergence Protocol; conditions: Ipomoea, pre-emergence, 312 h, evaluated after 13 days; for pest or weed control at 15.625 g/ha: 15.625 g ai/ha; for pest or weed control at 15.625 g/ha / pest or weed control at 250 g/ha: read-out: Morningglory, Ivy-leaved damage rating (100=total damage to plant; 0=no damage to plant); for pest or weed control at 62.5 g/ha: 62.5 g ai/ha, 100=total damage to plant, 0=no damage to plant, read-out: Morningglory, Ivy-leaved damage rating; for pest or weed control at 250 g/ha: 250 g ai/ha
Procedure, shortened: (§2)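 One day after sowing, pots are treated with a spray of test compound formulated in acetone/water 50:50 plus 0.5% Tween 20, giving 15.625, 62.5 or 250 g/ha. Evaluation on a 0–100 damage scale follows 13 days of glasshouse growth.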

[8] = test system: giant foxtail (Setaria faberi); test: Test G Pre-Emergence Protocol; conditions: Setaria faberi, pre-emergence, 312 h, evaluated after 13 days; for pest or weed control at 15.625 g/ha: 15.625 g ai/ha; for pest or weed control at 15.625 g/ha / pest or weed control at 250 g/ha: read-out: Foxtail, Giant damage rating (100=total damage to plant; 0=no damage to plant); for pest or weed control at 62.5 g/ha: 62.5 g ai/ha, 100=total damage to plant, 0=no damage to plant, read-out: Foxtail, Giant damage rating; for pest or weed control at 250 g/ha: 250 g ai/ha
Procedure, shortened: as §2

[9] = test system: velvetleaf (Abutilon theophrasti); test: Test G Pre-Emergence Protocol; conditions: Abutilon theophrasti, pre-emergence, 312 h, evaluated after 13 days; for pest or weed control at 15.625 g/ha: 15.625 g ai/ha; for pest or weed control at 15.625 g/ha / pest or weed control at 250 g/ha: read-out: Velvetleaf damage rating (100=total damage to plant; 0=no damage to plant); for pest or weed control at 62.5 g/ha: 62.5 g ai/ha, 100=total damage to plant, 0=no damage to plant, read-out: Velvetleaf damage rating; for pest or weed control at 250 g/ha: 250 g ai/ha
Procedure, shortened: as §2

[10] = test system: barnyardgrass (Echinochloa crus-galli); test: Test G Pre-Emergence Protocol; conditions: Echinochloa crus-galli, pre-emergence, 312 h, evaluated after 13 days; for pest or weed control at 15.625 g/ha: 15.625 g ai/ha; for pest or weed control at 15.625 g/ha / pest or weed control at 250 g/ha: read-out: Barnyardgrass damage rating (100=total damage to plant; 0=no damage to plant); for pest or weed control at 62.5 g/ha: 62.5 g ai/ha, 100=total damage to plant, 0=no damage to plant, read-out: Barnyardgrass damage rating; for pest or weed control at 250 g/ha: 250 g ai/ha
Procedure, shortened: as §2

[11] = test system: redroot pigweed (Amaranthus retroflexus); test: Test G Pre-Emergence Protocol; conditions: Amaranthus retroflexus, pre-emergence, 312 h, evaluated after 13 days; for pest or weed control at 15.625 g/ha: 15.625 g ai/ha; for pest or weed control at 15.625 g/ha / pest or weed control at 250 g/ha: read-out: Pigweed, Redroot damage rating (100=total damage to plant; 0=no damage to plant); for pest or weed control at 62.5 g/ha: 62.5 g ai/ha, 100=total damage to plant, 0=no damage to plant, read-out: Pigweed, Redroot damage rating; for pest or weed control at 250 g/ha: 250 g ai/ha
Procedure, shortened: as §2

corn (Zea mays) [12] = test: Test G Pre-Emergence Protocol; conditions: Zea mays, pre-emergence, 312 h, evaluated after 13 days; for plant injury at 15.625 g/ha: 15.625 g ai/ha; for plant injury at 15.625 g/ha / plant injury at 250 g/ha: read-out: Corn damage rating (100=total damage to plant; 0=no damage to plant); for plant injury at 62.5 g/ha: 62.5 g ai/ha, 100=total damage to plant, 0=no damage to plant, read-out: Corn damage rating; for plant injury at 250 g/ha: 250 g ai/ha
Procedure, shortened: as §2

Structure (SMILES)	pest or weed control at 15.625 g/ha [1] [%]	pest or weed control at 62.5 g/ha [1] [%]	pest or weed control at 250 g/ha [1] [%]	pest or weed control at 15.625 g/ha [2] [%]	pest or weed control at 62.5 g/ha [2] [%]	pest or weed control at 15.625 g/ha [3] [%]	pest or weed control at 62.5 g/ha [3] [%]	pest or weed control at 250 g/ha [3] [%]	pest or weed control at 15.625 g/ha [4] [%]	pest or weed control at 62.5 g/ha [4] [%]	pest or weed control at 250 g/ha [4] [%]	pest or weed control at 15.625 g/ha [5] [%]	pest or weed control at 62.5 g/ha [5] [%]	pest or weed control at 250 g/ha [5] [%]	plant injury at 15.625 g/ha (corn (Zea mays) [6]) [%]	plant injury at 62.5 g/ha (corn (Zea mays) [6]) [%]	plant injury at 250 g/ha (corn (Zea mays) [6]) [%]	pest or weed control at 15.625 g/ha [7] [%]	pest or weed control at 62.5 g/ha [7] [%]	pest or weed control at 250 g/ha [7] [%]	other results
Cc1nc(Cl)ccc1NC(=O)[C@H]1C(=O)N(C)C[C@@H]1c1ccc(C(F)(F)F)cc1 (racemic) [Compound 1825]	0	0	20	0	0	0	0	20	0	0	0	0	0	10	0	0	10	0	0	0	pest or weed control at 250 g/ha [2]: 50%; pest or weed control at 15.625 g/ha [8]: 0%; pest or weed control at 62.5 g/ha [8]: 20%; pest or weed control at 250 g/ha [8]: 70%; pest or weed control at 15.625 g/ha [9]: 0%; pest or weed control at 62.5 g/ha [9]: 0%; pest or weed control at 250 g/ha [9]: 0%; pest or weed control at 15.625 g/ha [10]: 0%; pest or weed control at 62.5 g/ha [10]: 0%; pest or weed control at 250 g/ha [10]: 0%; pest or weed control at 15.625 g/ha [11]: 0%; pest or weed control at 62.5 g/ha [11]: 0%; pest or weed control at 250 g/ha [11]: 0%; plant injury at 15.625 g/ha (corn (Zea mays) [12]): 0%; plant injury at 62.5 g/ha (corn (Zea mays) [12]): 0%; plant injury at 250 g/ha (corn (Zea mays) [12]): 0%
CSc1ncccc1NC(=O)[C@H]1C(=O)N(C)C[C@@H]1c1ccc(C(F)(F)F)cc1 (racemic) [Compound 1786]	0	0	0	0	10	0	0	30	0	0	0	0	0	20	0	0	0	0	0	0	pest or weed control at 15.625 g/ha [8]: 0%; pest or weed control at 62.5 g/ha [8]: 0%; pest or weed control at 250 g/ha [8]: 80%; pest or weed control at 15.625 g/ha [9]: 0%; pest or weed control at 62.5 g/ha [9]: 0%; pest or weed control at 250 g/ha [9]: 30%; pest or weed control at 15.625 g/ha [10]: 0%; pest or weed control at 62.5 g/ha [10]: 0%; pest or weed control at 250 g/ha [10]: 20%; pest or weed control at 15.625 g/ha [11]: 0%; pest or weed control at 62.5 g/ha [11]: 0%; pest or weed control at 250 g/ha [11]: 40%; plant injury at 15.625 g/ha (corn (Zea mays) [12]): 0%; plant injury at 62.5 g/ha (corn (Zea mays) [12]): 0%; plant injury at 250 g/ha (corn (Zea mays) [12]): 0%
CN1C[C@H](c2ccnc(C(C)(C)C)n2)[C@@H](C(=O)Nc2cccc(F)c2F)C1=O (racemic) [Compound 1769]	0	0	20	0	10	0	0	0	0	0	50	0	0	0	0	0	10	0	0	0	pest or weed control at 250 g/ha [2]: 60%; pest or weed control at 15.625 g/ha [8]: 20%; pest or weed control at 62.5 g/ha [8]: 40%; pest or weed control at 250 g/ha [8]: 90%; pest or weed control at 15.625 g/ha [9]: 0%; pest or weed control at 62.5 g/ha [9]: 0%; pest or weed control at 250 g/ha [9]: 0%; pest or weed control at 15.625 g/ha [10]: 0%; pest or weed control at 62.5 g/ha [10]: 20%; pest or weed control at 250 g/ha [10]: 70%; pest or weed control at 15.625 g/ha [11]: 0%; pest or weed control at 62.5 g/ha [11]: 0%; pest or weed control at 250 g/ha [11]: 0%; plant injury at 15.625 g/ha (corn (Zea mays) [12]): 0%; plant injury at 62.5 g/ha (corn (Zea mays) [12]): 0%; plant injury at 250 g/ha (corn (Zea mays) [12]): 0%
